Reference: patent US12351821B2, “Method to prepare sperm” (University of Massachusetts, priority 2016, dated 2025)

Key:
PKA = test: Western blot with anti-phosphoPKA substrate antibodies in sperm; type: cell-based, mouse
Description: Cauda epididymal mouse sperm were placed in 1 ml Hepes-TYH media as stated in figure legend for each experiment. After 10 min incubation at 37° C., epididymides were removed, and the suspension adjusted with non-cap medium to a final concentration of 1-2×10^7 cells/ml. After dilution 1:4 (total 400 μl), sperm were incubated at 37° C. for 1 hour in conditions that support or not capacitation. For capacitation, media was supplemented with 15 mM NaHCO3 and 4 mg/ml BSA. For A23187 treatment, 500 uL of the sperm suspension were taken from the initial swim out and supplemented with 20 μM A23187 for 10 minutes. Then, A23187 was washed off with 2 rounds of centrifugations 1-) 2000 RPMS and the 2-) 1500 RPMS for 5 min each. Sperm were re-suspended in free A23187 media. To evaluate the behavior of A23187 when PKA is inactivated, H89 was used at a concentration of 50 uM for all incubation periods including those used for washing A23187. Sperm proteins were then extracted for western blotting.
Sperm were centrifuged, and washed in 1 ml of phosphate buffer solution (PBS), re-suspended in Laemmli sample buffer (63), and boiled for 4 min. Before Loading, 5% β-mercaptoethanol was added to the protein extracts and boiled for 3 min. Protein extracts equivalent to 1×10^6 sperm were loaded per line and subjected to SDS-PAGE an electro-transfer to PVDF membranes (Bio-Rad) at 250 mA for 60 min on ice. […]

[1] = system: 2 cell embryos from eggs fertilized by treated sperm; test: Embryo culture of 2 cell embryos in KSOM to blastocyst stage; type: cell-based, mouse; details: for percentage of blastocyst in relation to the number of two-cell embryos: CatSper KO sperm, 3.5 days in KSOM
Description: (§1) Fertilized 2 cell embryos were cultured in KSOM media to blastocyst stage between 3.5 days wt and K. O between 3.8 to 4.1 days. Then they were transferred to 2.5 days post coitum (dpc) pseudo-pregnant CD-1 recipient females using the non-surgical uterine embryo transfer device (65). Pseudo-pregnant CD-1 recipient females were obtained by mating with vasectomized males one day after in vitro fertilization. Only females with a clear plug were chosen as embryo recipients; late morula and early stage blastocysts were chosen to be transferred. Routine genotyping was performed with total DNA from tail biopsy samples from weaning age pups as templates for PCR using genotyping primers for Catsper gene forward [5′-[…]-3′, Seq ID NO: 1] and reverse [S′-[…]-3′; Seq ID NO: 2] and for the reporter gene Lacz forward [5′[…]-3′; Seq ID NO: 3] and reverse [5′-[…]-3′: Seq ID NO: 4] (19).

[2] = system: pseudo-pregnant CD-1 recipient females; test: Non-surgical embryo transfer to pseudo-pregnant females, pups born; type: in vivo, mouse
Description: as §1

[3] = system: mouse sperm (fertilizing capacity, metaphase II-arrested eggs); test: In vitro fertilization assay with ionophore pre-treated sperm; type: cell-based; details: for fertilizing capacity: A23187 treatment
Description: (§2) Sperm from CD-1, C57BL6 (K.O control), CatSper KO 19, SLO3 KO (56), Soluble Adenylyl Cyclase KO (20), and PMC4 KO (35) cauda epididymides were allowed to swim out in 1 mL of standard TYH for 10 minutes. Each swim out tube was split in two halves (500 μl each) and one half was incubated with 20 uM A23187 for 10 minutes. Then, the A23187 was washed by centrifugation as described above (2000 and 1500 RPMS×5 min), the remaining sperm were re-suspended in free A23187 TYH standard medium and capacitated for an addition 1 hour and 20 minutes before adding the sperm to the fertilization drop or for CASA analysis.
Metaphase II-arrested eggs were collected from 6-8 week-old super ovulated CD-1 female mice (Charles River Laboratories). Females were each injected with 5-10 IU equine chorionic gonadotropin and 5-10 IU human chorionic gonadotropin 48 h apart. The cumulus-oocyte complexes (COC's) were placed into a well with 500 μl of media (TYH standard medium) previously equilibrated in an incubator with 5% CO2 at 37° C. Fertilization wells containing 20-30 eggs were inseminated with sperm (final concentration of 2.5×10^6 cells/ml) that had been incubated for 1 h and 20 min (in a medium supporting capacitation with or without calcium ionophore treatment A23187). After 4 h of insemination, eggs were washed and put in a fresh media. The eggs were evaluated 24 h post-insemination. To assess fertilization the three following criteria were considered: 1) the formation of the male and female pronuclei, 2) the emission of the second polar body, and 3) two cells stages.

mouse sperm = test: Sperm motility and hyperactivation by CASA after transient A23187 pre-treatment; type: cell-based
Description: as §2
Sperm suspensions (25 μl) were loaded into one pre-warmed chamber slide (depth, 100 μm) (Leja slide, Spectrum Technologies) and placed on a microscope stage at 37° C. Sperm movements were examined using the CEROS computer-assisted semen analysis (CASA) system (Hamilton Thorne Research, Beverly, MA). The default settings include the following: frames acquired: 90; frame rate: 60 Hz; minimum cell size: 4 pixels; static head size: 0.13-2.43; static head intensity: 0.10-1.52; static head elongation: 5-100. Sperm with hyper activated motility, defined as motility with high amplitude thrashing patterns and short distance of travel, were sorted using the criteria established by (64). The data was analyzed using the CASA nova software (64). At least 20 microscopy fields corresponding to a minimum of 200 sperm were analyzed in each experiment.

[4] = H89-treated C57BL6 sperm incubated 10 min in A23187

SMILES: CNc1ccc2oc(C[C@H]3O[C@@]4(CC[C@H]3C)O[C@H]([C@H](C)C(=O)c3ccc[nH]3)[C@H](C)C[C@H]4C)nc2c1C(=O)O [A23187]
- PKA activity in H89-treated sperm after A23187 (PKA; [4]): PKA remains inactive
- percentage of blastocyst in relation to the number of two-cell embryos ([1]; A23187 transient treatment alone): 20%
- percentage of blastocyst in relation to the number of two-cell embryos ([1]; combined starved plus rescue with A23187 transient treatment): ~90%
- fertilized eggs that continued to the blastocyst stage ([1]; eggs fertilized by C57BL6 sperm after A23187 treatment, control about 50%): over 80%
- outcome of blastocysts non-surgically transferred to pseudo pregnant females ([2]; C57BL6 sperm after A23187 treatment): became live pups
- heterozygous pups born ([2]; CatSper KO sperm, A23187 alone, 15 blastocysts transferred): three
- CatSper (+/-) mouse pups born ([2]; blastocysts from A23187-treated CatSper KO sperm, two different females): five
- sperm fertilization rate ([3]; C57BL6 sperm, A23187 pre-treatment): significant increase
- infertile phenotype (two-cell embryos developed) ([3]; CatSper1 KO sperm, A23187 transient treatment alone): rescued the infertile phenotype
- fertilization of metaphase II-arrested eggs in vitro ([3]; CatSper KO sperm, A23187-treated): competent to fertilize
- fertilization rate ([3]; CatSper KO sperm, starved plus rescue treatment followed by A23187 transient treatment): ~90%
- sperm fertilization rate ([3]; FerTDR/DR sperm, A23187 transient incubation): improved
- fertilizing capacity of H89-treated sperm [3, 4]: sufficient to induce fertilizing capacity
- fertilizing capacity ([3]; PMCA4 KO sperm): neither their hyperactivated motility nor their fertilizing capacity was rescued
- fertilizing capacity ([3]; sAC KO and SLO3 KO sperm): induced fertilizing capacity in sperm from both KO models
- percentage of hyperactive sperm (mouse sperm; C57BL6 sperm, short pulse of A23187 (20 uM, 10 min), compared with CD1 sperm): increased the percentage of hyperactive C57BL6 sperm to similar levels as those obtained using CD1 sperm
- hyperactivated motility (mouse sperm; CatSper1 KO sperm, 20 μM A23187 10 min then washed): a significant number of CatSper KO sperm exhibited hyperactivated motility
- sperm motility (mouse sperm; PMCA4 KO sperm, A23187 addition and removal): rendered all the sperm motionless and their motility was not recovered after ionophore removal
- hyperactivated motility (mouse sperm; PMCA4 KO sperm, A23187 treatment): neither their hyperactivated motility nor their fertilizing capacity was rescued
- hyperactivation (mouse sperm; sAC KO and SLO3 KO sperm, A23187 for 10 min): underwent hyperactivation
- sperm motility (mouse sperm; sAC KO sperm, A23187 for 10 min): a significant fraction of sAC KO sperm became motile

SMILES: O=S(=O)(NCCNCC=Cc1ccc(Br)cc1)c1cccc2cnccc12 [H89, N-[2-[[3-(4-bromophenyl)-2-propen-1-yl]amino]ethyl]5-isoquinolinesulfonamide]
- PKA substrate phosphorylation (PKA; C57BL6 sperm, H89 50 uM): do not show the prototypical increase in PKA substrate phosphorylation
- ability to fertilize in vitro in the presence of PKA inhibitor ([3]; C57BL6 sperm, H89 50 uM): unable to fertilize in vitro
